According to patent US12116358B2, “Substituted indoles and methods of use thereof” (EPIZYME, INC., priority 2018, dated 2024):
Where two headings read alike, the source gives them in different places.

Key:
SETD2(1434-1711) = molecular target: T1, SETD2(1434-1711) (Homo sapiens, UniProt Q9BYW2); experiment: SETD2 (1434-1711) assay; type: biochemical; conditions: read-out: SETD2 (1434-1711)
T1 construct: SETD2 (1434-1711) Assay; catalogue N/A
T1 sequence (Q9BYW2 1434-1711): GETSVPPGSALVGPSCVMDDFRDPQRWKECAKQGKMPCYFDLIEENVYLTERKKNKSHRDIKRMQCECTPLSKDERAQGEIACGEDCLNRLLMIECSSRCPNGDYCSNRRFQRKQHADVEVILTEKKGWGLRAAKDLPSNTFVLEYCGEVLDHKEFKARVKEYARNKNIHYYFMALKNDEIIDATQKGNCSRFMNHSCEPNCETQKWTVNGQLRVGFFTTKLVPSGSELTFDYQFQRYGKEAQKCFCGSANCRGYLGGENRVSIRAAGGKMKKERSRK

H3K36me3 in A549 cells = experiment: In-Cell Western (ICW) assay of SETD2 inhibitors (A549 assay); type: cell-based, human; conditions: A549 cells, read-out: SETD2 A549
Summary of the method: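 A549 cells seeded at 4,000/well onto compound and incubated 3 days at 37° C. Methanol-fixed cells stained overnight at 4° C with anti-H3K36me3 (1:1000), then IRDye 800CW secondary with DRAQ5 DNA counterstain. Plates read by Licor imaging at 700 and 800 channels.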

Row | IC50 (SETD2(1434-1711)) | IC50 (H3K36me3 in A549 cells; Homo sapiens) | IC50 (H3K36me3 in A549 cells) | SMILES
1 | 18.6 µM | > 25 µM | – | Cc1ccc[n+]([O-])c1C(NC(=O)c1cc2cccc(C)c2[nH]1)C1CC1 (stereo not drawn) [compound 576]
2 | 21.8 µM | > 25 µM | – | Cc1cc(C(=O)N2CCNCC2)ccc1C(NC(=O)c1cc2cccc(C)c2[nH]1)C1CC1 (stereo not drawn) [compound 577]
3 | 23 µM | – | > 25 µM | Cc1cccnc1C(CCC(=O)NC1CCC(N)CC1)NC(=O)c1cc2cccc(C)c2[nH]1 (stereo not drawn) [compound 579]
4 | 24.5 µM | > 25 µM | – | Cc1cccc2cc(C(=O)NCCc3ccccc3-n3ccnc3)[nH]c12 [compound 580]
5 | 34 µM | – | > 25 µM | CNC(=O)C(NC(=O)c1cc2c(F)ccc(C)c2[nH]1)c1ccccn1 (stereo not drawn) [compound 585]
6 | 36.4 µM | > 25 µM | – | CCOC(=O)CC(NC(=O)c1cc2cccc(C)c2[nH]1)c1ccccc1 (stereo not drawn) [compound 586]
7 | 40.4 µM | > 25 µM | – | Cc1cccc2cc(C(=O)N[C@@H]3CCN(C(=O)CCCN)C[C@@H]3C)[nH]c12 [compound 588]
8 | > 50 µM | – | > 25 µM | Cc1cccnc1C(C)(C)NC(=O)c1cc2cccc(C)c2[nH]1 [compound 595]
9 | > 50 µM | > 25 µM | – | Cc1cccc2cc(C(=O)N[C@H]3C[C@@H](NC(=O)CCN)C3)[nH]c12 [compound 596]
10 | > 50 µM | – | > 25 µM | Cc1cccc2cc(C(=O)NC3CC(NC(=O)CCN)C3)[nH]c12 (stereo not drawn) [compound 597]
11 | > 50 µM | > 25 µM | – | Cc1noc(CN)c1C(NC(=O)c1cc2cccc(C)c2[nH]1)C1CC1 (stereo not drawn) [compound 602]
12 | > 50 µM | – | > 25 µM | Cc1cccc2cc(C(=O)NC3CCC(NC(=O)Cc4cccnc4)CC3)[nH]c12 (stereo not drawn) [compound 605]
13 | 105 µM | > 25 µM | – | Cc1cccc2cc(C(=O)N[C@@H](CO)c3ccccc3)[nH]c12 [compound 616]
14 | > 200 µM | > 25 µM | – | Cc1cccnc1C(NC(=O)c1cc2cccc(Cc3ccn[nH]3)c2[nH]1)C1CC1 (stereo not drawn) [compound 618]
15 | 0.1 µM | – | 0.5 µM | Cc1ccc(F)c2cc(C(=O)N[C@@H]3CCC[C@H](N4CCN(CC(F)(F)F)CC4)C3)[nH]c12 [compound 826]
16 | 0.02 µM | 0.1 µM | – | Cc1ccc(F)c2cc(C(=O)N[C@@H]3CCC[C@H](N4CCN(C(=O)C(C)C)CC4)C3)[nH]c12 [compound 837]
17 | 0.01 µM | – | 0.04 µM | CCC(=O)N1CCN([C@H]2CCC[C@@H](NC(=O)c3cc4c(F)ccc(C)c4[nH]3)C2)CC1 [compound 839]
18 | 8.5 µM | – | > 2 µM | COCCN(C(C)=O)C1CCN(C2CCCC(NC(=O)c3cc4c(F)ccc(C)c4[nH]3)C2)C1 (stereo not drawn) [compound 844]
19 | 0.1 µM | – | 1 µM | Cc1ccc(F)c2cc(C(=O)NC3CCCC(N4CCn5ccnc5C4)C3)[nH]c12 (stereo not drawn) [compound 852]
20 | 4.7 µM | – | > 2 µM | Cc1ccc(F)c2cc(C(=O)N[C@@H]3CCC[C@@H](N4CCN(C(=O)CN(C)C)CC4)C3)[nH]c12 [compound 855]
21 | 7.4 µM | – | > 2 µM | CC(=O)N1CCN([C@@H]2CCC[C@@H](NC(=O)c3cc4cccc(C)c4[nH]3)C2)CC1 [compound 857]

The remaining lines, values behind:

Row | SMILES | IC50 (SETD2(1434-1711)) | IC50 (H3K36me3 in A549 cells; Homo sapiens) | IC50 (H3K36me3 in A549 cells)
22 | Cc1cccnc1C(NC(=O)c1cc2cccc(CO)c2[nH]1)C1CC1 (stereo not drawn) [compound 574] | 17.3 µM | > 25 µM | –
23 | Cc1cccc2cc(C(=O)NCc3ccccc3N3CCOCC3)[nH]c12 [compound 575] | > 18 µM | > 25 µM | –
24 | Cc1cccc2cc(C(=O)Nc3ccn4ccnc4c3)[nH]c12 [compound 578] | 22.5 µM | – | > 25 µM
25 | Cc1cccc2cc(C(=O)NC3CCC(NS(=O)(=O)CCCN)CC3)[nH]c12 (stereo not drawn) [compound 581] | 28.2 µM | – | > 25 µM
26 | CCN(CC)CCCC(NC(=O)c1cc2cccc(C)c2[nH]1)c1ncccc1C (stereo not drawn) [compound 582] | 31.2 µM | > 25 µM | –
27 | Cc1ccc(C(=O)N2CCNCC2)cc1C(NC(=O)c1cc2cccc(C)c2[nH]1)C1CC1 (stereo not drawn) [compound 583] | 32.4 µM | > 25 µM | –
28 | Cc1cc(C(=O)N[C@@H]2CC[C@@H]2N)cnc1C(NC(=O)c1cc2cccc(C)c2[nH]1)C1CC1 (stereo partly drawn) [compound 584] | 33.7 µM | > 25 µM | –
29 | Cc1cccc2cc(C(=O)N[C@H]3CC[C@H](NC(=O)CCN4CCCCC4)CC3)[nH]c12 [compound 587] | 37.4 µM | > 25 µM | –
30 | CCN(CC)CCC(=O)N[C@H]1CC[C@H](NC(=O)c2cc3cccc(C)c3[nH]2)CC1 [compound 589] | 43.6 µM | > 25 µM | –
31 | Cc1cccnc1C1(NC(=O)c2cc3cccc(C)c3[nH]2)CNC1 [compound 591] | > 50 µM | > 25 µM | –
32 | Cc1cccc2cc(C(=O)NC3CCN(C(=O)CCCN)C3)[nH]c12 (stereo not drawn) [compound 593] | > 50 µM | > 25 µM | –
33 | Cc1cccc2cc(C(=O)NC3CN(C(=O)CCCN)C3)[nH]c12 [compound 594] | > 50 µM | > 25 µM | –
34 | Cc1cccnc1C(NC(=O)c1cc2ccnc(C)c2[nH]1)C1CC1 (stereo not drawn) [compound 598] | > 50 µM | > 25 µM | –
35 | Cc1cccc2cc(C(=O)NC3CCC(NC(=O)CCN)C3)[nH]c12 (stereo not drawn) [compound 600] | > 50 µM | > 25 µM | –
36 | Cc1cccnc1C(CN1CCOCC1)N(C)C(=O)c1cc2cccc(C)c2[nH]1 (stereo not drawn) [compound 601] | > 50 µM | – | > 25 µM
37 | Cc1cccc2cc(C(=O)NC(CN(C)C)c3cccnc3)[nH]c12 (stereo not drawn) [compound 603] | > 50 µM | – | > 25 µM
38 | Cc1cccnc1C(NC(=O)c1cc2ncccn2n1)C1CC1 (stereo not drawn) [compound 604] | > 50 µM | > 25 µM | –
39 | Cc1cccnc1C(NC(=O)c1cc2c(CO)ccc(C)c2[nH]1)C1CC1 (stereo not drawn) [compound 606] | > 50 µM | – | > 25 µM
40 | Cc1cccnc1C(NC(=O)C1Cc2cccc(C)c2N1)C1CC1 (stereo not drawn) [compound 607] | > 50 µM | > 25 µM | –
41 | Cc1cccnc1C(NC(=O)c1cc2cncc(C)c2[nH]1)C1CC1 (stereo not drawn) [compound 608] | > 50 µM | – | > 25 µM
42 | Cc1ccc(F)c2cc(C(=O)Nc3cccc4cccnc34)[nH]c12 [compound 609] | > 50 µM | – | > 25 µM

Row | SMILES | IC50 (SETD2(1434-1711)) | IC50 (H3K36me3 in A549 cells; Homo sapiens) | IC50 (H3K36me3 in A549 cells)
43 | Cc1ccc(F)c2cc(C(=O)Nc3cc(N4CCN(C)CC4)ccn3)[nH]c12 [compound 612] | > 50 µM | > 25 µM | –
44 | Cc1cccc2cc(C(=O)NC3CCN(C(=O)CCCN)CC3C)[nH]c12 (stereo not drawn) [compound 614] | 62.7 µM | – | > 25 µM
45 | Cc1cccc2cc(C(=O)NC(c3cccc(CN(C)C)n3)C3CC3)[nH]c12 (stereo not drawn) [compound 615] | 71.1 µM | – | > 25 µM
46 | Cc1cccc2cc(C(=O)NC3CC(=O)NCC(c4ccccc4)C3)[nH]c12 (stereo not drawn) [compound 617] | > 200 µM | – | > 25 µM
47 | Cc1cccc2cc(C(=O)N3CCCC34CCc3ccccc34)[nH]c12 (stereo not drawn) [compound 619] | > 200 µM | > 25 µM | –
48 | Cc1cccc2cc(C(=O)NC3CCNC(=O)c4ccccc43)[nH]c12 (stereo not drawn) [compound 620] | > 200 µM | – | > 25 µM
49 | Cc1cccc2cc(C(=O)NCCc3cc(Cl)ccc3N3CCOCC3)[nH]c12 [compound 622] | > 200 µM | – | > 25 µM
50 | Cc1cccc2cc(C(=O)Nc3cn4ccnc4cn3)[nH]c12 [compound 623] | > 200 µM | – | > 25 µM
51 | Cc1ccc(F)c2cc(C(=O)N[C@@H]3CCC[C@H](N4CCCNC(=O)C4)C3)[nH]c12 [compound 823] | 0.4 µM | – | 0.4 µM
52 | CCOC(=O)N1CCN([C@H]2CCC[C@@H](NC(=O)c3cc4c(F)ccc(C)c4[nH]3)C2)CC1 [compound 824] | 0.01 µM | – | 0.04 µM
53 | Cc1ccc(F)c2cc(C(=O)N[C@@H]3CCC[C@H](N4CCN(C(=O)N5CCOCC5)CC4)C3)[nH]c12 [compound 828] | 0.02 µM | – | 0.04 µM
54 | CC(=O)NC1CCN([C@H]2CCC[C@@H](NC(=O)c3cc4c(F)ccc(C)c4[nH]3)C2)C1 (stereo partly drawn) [compound 833] | 0.04 µM | – | 0.4 µM
55 | CCC(=O)N1CCN([C@@H]2CCC[C@@H](NC(=O)c3cc4c(F)ccc(C)c4[nH]3)C2)CC1 [compound 840] | 0.9 µM | – | > 2 µM
56 | COCCN(C(C)=O)C1CCN(C2CCCC(NC(=O)c3cc4c(F)ccc(C)c4[nH]3)C2)C1 (stereo not drawn) [compound 843] | 0.2 µM | – | 0.8 µM
57 | COCC(=O)N1CCN([C@H]2CCC[C@@H](NC(=O)c3cc4c(F)ccc(C)c4[nH]3)C2)CC1 [compound 846] | 0.02 µM | – | 0.1 µM
58 | COCC(=O)N1CCN([C@@H]2CCC[C@@H](NC(=O)c3cc4c(F)ccc(C)c4[nH]3)C2)CC1 [compound 847] | 1 µM | – | > 2 µM
59 | Cc1ccc(F)c2cc(C(=O)N[C@@H]3CCC[C@H](N4CCN(C(=O)CN(C)C)CC4)C3)[nH]c12 [compound 854] | 0.02 µM | – | 0.5 µM
60 | CC(=O)N1CCN([C@H]2CCC[C@@H](NC(=O)c3cc4cccc(C)c4[nH]3)C2)CC1 [compound 856] | 0.2 µM | – | 0.3 µM
61 | CNC(=O)CN1CCN(C2CCC[C@@H](NC(=O)c3cc4c(F)ccc(C)c4[nH]3)C2)CC1 (stereo partly drawn) [compound 858] | 0.4 µM | – | > 2 µM
62 | Cc1ccc(F)c2cc(C(=O)N[C@@H]3CCCC(N4CCN(CC(=O)N(C)C)CC4)C3)[nH]c12 (stereo partly drawn) [compound 859] | 0.5 µM | – | 1.9 µM
63 | Cc1ccc(F)c2cc(C(=O)NC3CCCC(N4CCn5cnnc5C4)C3)[nH]c12 (stereo not drawn) [compound 860] | 0.1 µM | – | 1.6 µM
